Laboratory results published in patent US9695155B2, “Herbicidal substituted pyrimidinyloxy benzene compounds” (E. I. DU PONT DE NEMOURS AND COMPANY, priority 2013, dated 2017).

What was measured:
[1] = tested on: large (Lg) crabgrass; test: Test A preemergence; type: in vivo, Digitaria sanguinalis; settings: for Crabgrass, Large plant response rating (0 to 100 scale): 125 g ai/ha; for Crabgrass, Large plant response rating: 500 g ai/ha, 0 to 100 scale where 0 is no effect and 100 is complete control
Outline: (§1)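 Pre- and postemergence greenhouse screen. Soil: loam + sand. Spray carrier: solvent mixture, non-phytotoxic, with surfactant. Post timing at 1–2 leaves, height 2–10 cm. Readout: visual injury on a 0–100 scale roughly 10 days after application, untreated plants as reference.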

[2] = tested on: pigweed; test: Test A preemergence; type: in vivo, Amaranthus retroflexus; settings: for Pigweed plant response rating (0 to 100 scale): 125 g ai/ha; for Pigweed plant response rating: 500 g ai/ha, 0 to 100 scale where 0 is no effect and 100 is complete control
Outline: as §1

[3] = tested on: velvetleaf; test: Test A preemergence; type: in vivo, Abutilon theophrasti; settings: for Velvetleaf plant response rating (0 to 100 scale): 125 g ai/ha; for Velvetleaf plant response rating: 500 g ai/ha, 0 to 100 scale where 0 is no effect and 100 is complete control
Outline: as §1

[4] = tested on: large (Lg) crabgrass; test: Test A postemergence; type: in vivo, Digitaria sanguinalis; settings: 0 to 100 scale where 0 is no effect and 100 is complete control; for Crabgrass, Large plant response rating: 125 g ai/ha; for Plant response rating, Crabgrass, Large: 500 g ai/ha
Outline: as §1

[5] = tested on: morningglory; test: Test A postemergence; type: in vivo, Ipomoea spp.; settings: 0 to 100 scale where 0 is no effect and 100 is complete control; for Morningglory plant response rating: 125 g ai/ha; for Plant response rating, Morningglory: 500 g ai/ha
Outline: as §1

[6] = tested on: pigweed; test: Test A postemergence; type: in vivo, Amaranthus retroflexus; settings: 0 to 100 scale where 0 is no effect and 100 is complete control; for Pigweed plant response rating: 125 g ai/ha; for Plant response rating, Pigweed: 500 g ai/ha
Outline: as §1

[7] = tested on: velvetleaf; test: Test A postemergence; type: in vivo, Abutilon theophrasti; settings: 0 to 100 scale where 0 is no effect and 100 is complete control; for Velvetleaf plant response rating: 125 g ai/ha; for Plant response rating, Velvetleaf: 500 g ai/ha
Outline: as §1

[8] = tested on: corn; test: Test A postemergence; type: in vivo, Zea mays; settings: 0 to 100 scale where 0 is no effect and 100 is complete control; for Corn plant response rating: 125 g ai/ha; for Plant response rating, Corn: 500 g ai/ha
Outline: as §1

[9] = tested on: Italian ryegrass; test: Test C postemergence; type: in vivo, Lolium multiflorum; settings: for Ryegrass, Italian plant response rating: 31 g ai/ha; for Ryegrass, Italian plant response rating / Plant response rating, Ryegrass, Italian: scale 0 to 100 (0 no effect, 100 complete control)
Outline: (§2)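 Greenhouse herbicide screen. Pre: seeded loam/sand, sprayed at planting. Post: 1–4 leaf plants (2–18 cm) in peat-based mix. Formulation: solvent mixture + surfactant, non-phytotoxic. Readout: visual % control vs untreated, 13–15 d; dash = not tested.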

[10] = tested on: corn; test: Test C postemergence; type: in vivo, Zea mays; settings: for Corn plant response rating: 31 g ai/ha; for Corn plant response rating / Plant response rating, Corn: scale 0 to 100 (0 no effect, 100 complete control)
Outline: as §2

[11] = tested on: giant foxtail; test: Test C postemergence; type: in vivo, Setaria faberii; settings: for Foxtail, Giant plant response rating: 31 g ai/ha; for Foxtail, Giant plant response rating / Plant response rating, Foxtail, Giant: scale 0 to 100 (0 no effect, 100 complete control)
Outline: as §2

[12] = tested on: johnsongrass; test: Test C postemergence; type: in vivo, Sorghum halepense; settings: for Johnsongrass plant response rating: 31 g ai/ha; for Johnsongrass plant response rating / Plant response rating, Johnsongrass: scale 0 to 100 (0 no effect, 100 complete control)
Outline: as §2

[13] = tested on: pigweed; test: Test C postemergence; type: in vivo, Amaranthus retroflexus; settings: for Pigweed plant response rating: 31 g ai/ha; for Pigweed plant response rating / Plant response rating, Pigweed: scale 0 to 100 (0 no effect, 100 complete control)
Outline: as §2

[14] = tested on: soybean; test: Test C postemergence; type: in vivo, Glycine max; settings: for Soybean plant response rating: 31 g ai/ha; for Soybean plant response rating / Plant response rating, Soybean: scale 0 to 100 (0 no effect, 100 complete control)
Outline: as §2

[15] = tested on: barnyardgrass; test: Test C postemergence; type: in vivo, Echinochloa crus-galli; settings: for Barnyardgrass plant response rating: 31 g ai/ha, 13 to 15 days; for Barnyardgrass plant response rating / Plant response rating, Barnyardgrass: scale 0 to 100 (0 no effect, 100 complete control)
Outline: as §2

[16] = tested on: waterhemp; test: Test C postemergence; type: in vivo, Amaranthus rudis; settings: for Waterhemp plant response rating: 31 g ai/ha; for Waterhemp plant response rating / Plant response rating, Waterhemp: scale 0 to 100 (0 no effect, 100 complete control)
Outline: as §2

[17] = tested on: kochia; test: Test C postemergence; type: in vivo, Kochia scoparia; settings: for Kochia plant response rating: 31 g ai/ha; for Kochia plant response rating / Plant response rating, Kochia: scale 0 to 100 (0 no effect, 100 complete control)
Outline: as §2

[18] = tested on: wild oat; test: Test C postemergence; type: in vivo, Avena fatua; settings: for Oat, Wild plant response rating: 31 g ai/ha; for Oat, Wild plant response rating / Plant response rating, Oat, Wild: scale 0 to 100 (0 no effect, 100 complete control)
Outline: as §2

[19] = 16 g ai/ha, postemergence, 0 is no effect, 100 is complete control
[20] = postemergence, visual rating, 13 to 15 days
[21] = 125 g ai/ha, postemergence, visual rating
[22] = Postemergence, 62 g ai/ha, 13 to 15 days

## FC(F)(F)c1cnn(-c2c(Br)cccc2Oc2ncc(Cl)cn2)c1 [Compound 191]
[1]
  Crabgrass, Large plant response rating (0 to 100 scale): 100
  Crabgrass, Large plant response rating: 100
[2]
  Pigweed plant response rating (0 to 100 scale): 100
  Pigweed plant response rating: 100
[3]
  Velvetleaf plant response rating (0 to 100 scale): 80
  Velvetleaf plant response rating: 90
[4]
  Crabgrass, Large plant response rating: 50
  Plant response rating, Crabgrass, Large: 90
[5]
  Morningglory plant response rating: 80
  Plant response rating, Morningglory: 100
[6]
  Pigweed plant response rating: 100
  Plant response rating, Pigweed: 100
[7]
  Velvetleaf plant response rating: 90
  Plant response rating, Velvetleaf: 100
[8]
  Corn plant response rating: 20
  Plant response rating, Corn: 40
[9]; [19]
  Plant response rating (0 to 100), Ryegrass, Italian: 0
[9]; [20]
  Ryegrass, Italian plant response rating: 0
[9]; [21]
  Plant response rating, Ryegrass, Italian: 5
[9]; Postemergence, 62 g ai/ha
  Plant response rating, Ryegrass, Italian: 5
[10]; [19]
  Plant response rating (0 to 100), Corn: 5
[10]; [20]
  Corn plant response rating: 5
[10]; [21]
  Plant response rating, Corn: 10
[10]; Postemergence, 62 g ai/ha
  Plant response rating, Corn: 10
[11]; [19]
  Plant response rating (0 to 100), Foxtail, Giant: 10
[11]; [20]
  Foxtail, Giant plant response rating: 10
[11]; [21]
  Plant response rating, Foxtail, Giant: 15
[11]; Postemergence, 62 g ai/ha
  Plant response rating, Foxtail, Giant: 10
[12]; [19]
  Plant response rating (0 to 100), Johnsongrass: 30
[12]; [20]
  Johnsongrass plant response rating: 10
[12]; [21]
  Plant response rating, Johnsongrass: 10
[12]; Postemergence, 62 g ai/ha
  Plant response rating, Johnsongrass: 15
[13]; [19]
  Plant response rating (0 to 100), Pigweed: 95
[13]; [20]
  Pigweed plant response rating: 85
[13]; [21]
  Plant response rating, Pigweed: 98
[13]; Postemergence, 62 g ai/ha
  Plant response rating, Pigweed: 95
[14]; [19]
  Plant response rating (0 to 100), Soybean: 40
[14]; [20]
  Soybean plant response rating: 55
[14]; [21]
  Plant response rating, Soybean: 30
[14]; Postemergence, 62 g ai/ha
  Plant response rating, Soybean: 60
[15]; [19]
  Plant response rating (0 to 100), Barnyardgrass: 10
[15]; postemergence, visual rating
  Barnyardgrass plant response rating: 10
[15]; [21]
  Plant response rating, Barnyardgrass: 15
[15]; Postemergence, 62 g ai/ha
  Plant response rating, Barnyardgrass: 15
[16]; [19]
  Plant response rating (0 to 100), Waterhemp: 80
[16]; [20]
  Waterhemp plant response rating: 85
[16]; [21]
  Plant response rating, Waterhemp: 95
[16]; Postemergence, 62 g ai/ha
  Plant response rating, Waterhemp: 95
[17]; [19]
  Plant response rating (0 to 100), Kochia: 85
[17]; [20]
  Kochia plant response rating: 95
[17]; [21]
  Plant response rating, Kochia: 100
[17]; Postemergence, 62 g ai/ha
  Plant response rating, Kochia: 98
[18]; [19]
  Plant response rating (0 to 100), Oat, Wild: 5
[18]; [20]
  Oat, Wild plant response rating: 5
[18]; [21]
  Plant response rating, Oat, Wild: 10
[18]; Postemergence, 62 g ai/ha
  Plant response rating, Oat, Wild: 5

## N#Cc1cnn(-c2c(C#N)cccc2Oc2ncc(Cl)cn2)c1 [Compound 200]
[1]
  Crabgrass, Large plant response rating (0 to 100 scale): 100
  Crabgrass, Large plant response rating: 100
[2]
  Pigweed plant response rating (0 to 100 scale): 100
  Pigweed plant response rating: 100
[3]
  Velvetleaf plant response rating (0 to 100 scale): 100
  Velvetleaf plant response rating: 100
[4]
  Crabgrass, Large plant response rating: 90
  Plant response rating, Crabgrass, Large: 90
[5]
  Morningglory plant response rating: 90
  Plant response rating, Morningglory: 100
[6]
  Pigweed plant response rating: 100
  Plant response rating, Pigweed: 100
[7]
  Velvetleaf plant response rating: 100
  Plant response rating, Velvetleaf: 100
[8]
  Corn plant response rating: 50
  Plant response rating, Corn: 60
[9]; [20]
  Ryegrass, Italian plant response rating: 5
[9]; [21]
  Plant response rating, Ryegrass, Italian: 5
[9]; 250 g ai/ha, postemergence
  Plant response rating (0 to 100), Ryegrass, Italian: 5
[9]; [22]
  Plant response rating, Ryegrass, Italian: 10
[10]; [20]
  Corn plant response rating: 5
[10]; [21]
  Plant response rating, Corn: 15
[10]; 250 g ai/ha, postemergence
  Plant response rating (0 to 100), Corn: 20
[10]; [22]
  Plant response rating, Corn: 10
[11]; [20]
  Foxtail, Giant plant response rating: 5
[11]; [21]
  Plant response rating, Foxtail, Giant: 5
[11]; 250 g ai/ha, postemergence
  Plant response rating (0 to 100), Foxtail, Giant: 15
[11]; [22]
  Plant response rating, Foxtail, Giant: 5
[12]; [20]
  Johnsongrass plant response rating: 5
[12]; [21]
  Plant response rating, Johnsongrass: 5
[12]; 250 g ai/ha, postemergence
  Plant response rating (0 to 100), Johnsongrass: 30
[12]; [22]
  Plant response rating, Johnsongrass: 5
[13]; [20]
  Pigweed plant response rating: 75
[13]; [21]
  Plant response rating, Pigweed: 95
[13]; 250 g ai/ha, postemergence
  Plant response rating (0 to 100), Pigweed: 95
[13]; [22]
  Plant response rating, Pigweed: 90
[14]; [20]
  Soybean plant response rating: 90
[14]; [21]
  Plant response rating, Soybean: 95
[14]; 250 g ai/ha, postemergence
  Plant response rating (0 to 100), Soybean: 90
[14]; [22]
  Plant response rating, Soybean: 95
[15]; postemergence, visual rating
  Barnyardgrass plant response rating: 0
[15]; [21]
  Plant response rating, Barnyardgrass: 10
[15]; 250 g ai/ha, postemergence
  Plant response rating (0 to 100), Barnyardgrass: 15
[15]; Postemergence, 62 g ai/ha
  Plant response rating, Barnyardgrass: 5
[16]; [20]
  Waterhemp plant response rating: 70
[16]; [21]
  Plant response rating, Waterhemp: 90
[16]; 250 g ai/ha, postemergence
  Plant response rating (0 to 100), Waterhemp: 95
[16]; [22]
  Plant response rating, Waterhemp: 98
[17]; [20]
  Kochia plant response rating: 80
[17]; [21]
  Plant response rating, Kochia: 98
[17]; 250 g ai/ha, postemergence
  Plant response rating (0 to 100), Kochia: 100
[17]; [22]
  Plant response rating, Kochia: 95
[18]; [20]
  Oat, Wild plant response rating: 15
[18]; [21]
  Plant response rating, Oat, Wild: 25
[18]; 250 g ai/ha, postemergence
  Plant response rating (0 to 100), Oat, Wild: 20
[18]; [22]
  Plant response rating, Oat, Wild: 15
